PMC11497074 (RSC Advances, 2024)

Target: CA IX (Homo sapiens, UniProt Q16790)
Experiment: biochemical

IC50: 548 ± 35.7 nM
Compound: O=c1ccc2ccc(O[C@@H]3O[C@H](CO)[C@@H](O)[C@H](O)[C@H]3O)cc2o1 [Skimmin, skimmin]
